{"source": "patent US11434242B2", "about": "“Dopamine-b-hydroxylase inhibitors” (BIAL-PORTELA & Cª, S.A., priority 2017, dated 2022)", "molecular_target": "T1, Dopamine beta hydroxylase (Homo sapiens, UniProt P09172)", "T1 construct": "125 μl of plasma; tissue Instituto Português do Sangue Transplantação; host or cells: human plasma from healthy donors", "T1 sequence (P09172 40-617 limits assumed)": "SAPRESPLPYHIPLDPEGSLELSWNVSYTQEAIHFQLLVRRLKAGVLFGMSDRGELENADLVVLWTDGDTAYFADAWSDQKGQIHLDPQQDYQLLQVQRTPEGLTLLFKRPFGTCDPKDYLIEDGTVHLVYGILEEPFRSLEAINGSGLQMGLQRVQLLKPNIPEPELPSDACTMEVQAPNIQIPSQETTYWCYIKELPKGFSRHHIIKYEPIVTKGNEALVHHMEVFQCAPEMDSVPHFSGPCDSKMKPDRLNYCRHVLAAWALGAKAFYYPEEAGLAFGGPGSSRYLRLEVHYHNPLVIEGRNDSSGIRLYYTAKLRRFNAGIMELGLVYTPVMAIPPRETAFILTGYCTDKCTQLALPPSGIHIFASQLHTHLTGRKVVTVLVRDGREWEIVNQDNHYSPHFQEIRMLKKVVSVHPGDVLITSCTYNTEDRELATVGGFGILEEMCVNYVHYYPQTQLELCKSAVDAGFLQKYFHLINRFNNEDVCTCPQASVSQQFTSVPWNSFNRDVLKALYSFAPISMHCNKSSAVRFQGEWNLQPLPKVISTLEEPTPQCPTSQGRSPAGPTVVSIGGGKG", "assay": "Dopamine beta hydroxylase activity in human plasma", "format": "biochemical", "conditions": "for Plasma (0.01 μM), activity in % of control: inhibitor 0.01 μM; for Plasma (0.1 μM), activity in % of control: inhibitor 0.1 μM", "in_short": "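Healthy-donor human plasma pre-incubated 10 min at 37° C with compound at final 10, 100 or 1000 nM in pH 5.0 acetate buffer with ascorbate, fumarate, pargyline, N-ethylmaleimide, catalase and copper sulfate. Tyramine substrate then added for 45 min; octopamine formed was isolated by SCX cartridge, periodate-converted and read at 330 nm; activity given as % control.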"}
{"smiles": "Cn1c(CC(=O)N[C@H]2CCOC2)c2n(c1=S)C[C@H](c1c(F)ccc(F)c1F)C2", "note": "[Example 417, 2-((S)-2-methyl-3-thioxo-6-(2,3,6-trifluorophenyl)-2,5,6,7-tetrahydro-3H-pyrrolo[1,2-c]imidazol-1-yl)-N—((S)-tetrahydrofuran-3-yl)acetamide]", "values": [{"measurement": "Plasma (0.01 μM), activity in % of control", "value": "87.7 % of control"}, {"measurement": "Plasma (0.1 μM), activity in % of control", "value": "60.5 % of control"}]}
{"smiles": "Cn1c(CC(=O)N[C@H]2CCOC2)c2n(c1=S)C[C@@]1(c3c(F)ccc(Cl)c3F)C[C@@H]21", "note": "[Example 418, 2-((5aS,6aR)-5a-(3-chloro-2,6-difluorophenyl)-2-methyl-3-thioxo-2,3,5,5a,6,6a-hexahydrocyclopropa[3,4]pyrrolo[1,2-c]imidazol-1-yl)-N—((S)-tetrahydrofuran-3-yl)acetamide]", "values": [{"measurement": "Plasma (0.01 μM), activity in % of control", "value": "27.7 % of control"}, {"measurement": "Plasma (0.1 μM), activity in % of control", "value": "3.0 % of control"}]}
{"smiles": "Cn1c(CC(=O)N2CCOCC2)c2n(c1=S)C[C@H](c1cc(F)cc(F)c1)C2", "note": "[Example 419, (S)-2-(6-(3,5-difluorophenyl)-2-methyl-3-thioxo-2,5,6,7-tetrahydro-3H-pyrrolo[1,2-c]imidazol-1-yl)-1-morpholinoethan-1-one]", "values": [{"measurement": "Plasma (0.01 μM), activity in % of control", "value": "92.5 % of control"}, {"measurement": "Plasma (0.1 μM), activity in % of control", "value": "61.0 % of control"}]}
{"smiles": "CN(C(=O)Cc1[nH]c(=S)n2c1C[C@H](c1c(F)ccc(F)c1F)C2)C1COC1", "note": "[Example 420, (R)—N-methyl-N-(oxetan-3-yl)-2-(3-thioxo-6-(2,3,6-trifluorophenyl)-2,5,6,7-tetrahydro-3H-pyrrolo[1,2-c]imidazol-1-yl)acetamide]", "values": [{"measurement": "Plasma (0.01 μM), activity in % of control", "value": "87.8 % of control"}, {"measurement": "Plasma (0.1 μM), activity in % of control", "value": "48.5 % of control"}]}
{"smiles": "Cn1c(CC(=O)N2CCOCC2)c2n(c1=S)C[C@@]1(c3c(F)ccc(Cl)c3F)C[C@@H]21", "note": "[Example 421, 2-((5aS,6aR)-5a-(3-chloro-2,6-difluorophenyl)-2-methyl-3-thioxo-2,3,5,5a,6,6a-hexahydrocyclopropa[3,4]pyrrolo[1,2-c]imidazol-1-yl)-1-morpholinoethan-1-one]", "values": [{"measurement": "Plasma (0.01 μM), activity in % of control", "value": "26.1 % of control"}, {"measurement": "Plasma (0.1 μM), activity in % of control", "value": "5.8 % of control"}]}
{"smiles": "Cn1c(CC(=O)N2CCOCC2)c2n(c1=S)C[C@@]1(c3cc(Cl)ccc3F)C[C@@H]21", "note": "[Example 422, 2-((5aS,6aR)-5a-(5-chloro-2-fluorophenyl)-2-methyl-3-thioxo-2,3,5,5a,6,6a-hexahydrocyclopropa[3,4]pyrrolo[1,2-c]imidazol-1-yl)-1-morpholinoethan-1-one]", "values": [{"measurement": "Plasma (0.01 μM), activity in % of control", "value": "68.1 % of control"}, {"measurement": "Plasma (0.1 μM), activity in % of control", "value": "23.2 % of control"}]}
{"smiles": "Cn1c(CC(=O)NC2CCOCC2)c2n(c1=S)C[C@@]1(c3c(F)ccc(Cl)c3F)C[C@@H]21", "note": "[Example 423, 2-((5aS,6aR)-5a-(3-chloro-2,6-difluorophenyl)-2-methyl-3-thioxo-2,3,5,5a,6,6a-hexahydrocyclopropa[3,4]pyrrolo[1,2-c]imidazol-1-yl)-N-(tetrahydro-2H-pyran-4-yl)acetamide]", "values": [{"measurement": "Plasma (0.01 μM), activity in % of control", "value": "18.5 % of control"}, {"measurement": "Plasma (0.1 μM), activity in % of control", "value": "1.7 % of control"}]}
{"smiles": "Cn1c(CC(=O)O)c2n(c1=S)C[C@H](c1c(F)ccc(Cl)c1F)C2", "note": "[Example 424, (S)-2-(6-(3-chloro-2,6-difluorophenyl)-2-methyl-3-thioxo-2,5,6,7-tetrahydro-3H-pyrrolo[1,2-c]imidazol-1-yl)acetic acid]", "values": [{"measurement": "Plasma (0.01 μM), activity in % of control", "value": "59.5 % of control"}, {"measurement": "Plasma (0.1 μM), activity in % of control", "value": "20.6 % of control"}]}
{"smiles": "Cn1c(CC(=O)N[C@@H]2CCOC2)c2n(c1=S)C[C@H](c1cc(F)cc(F)c1)C2", "note": "[Example 425, 2-((S)-6-(3,5-difluorophenyl)-2-methyl-3-thioxo-2,5,6,7-tetrahydro-3H-pyrrolo[1,2-c]imidazol-1-yl)-N—((R)-tetrahydrofuran-3-yl)acetamide]", "values": [{"measurement": "Plasma (0.01 μM), activity in % of control", "value": "78.6 % of control"}, {"measurement": "Plasma (0.1 μM), activity in % of control", "value": "52.0 % of control"}]}
{"smiles": "Cn1c(CC(=O)N[C@H]2CCOC2)c2n(c1=S)C[C@H](c1cc(F)cc(F)c1)C2", "note": "[Example 426, 2-((S)-6-(3,5-difluorophenyl)-2-methyl-3-thioxo-2,5,6,7-tetrahydro-3H-pyrrolo[1,2-c]imidazol-1-yl)-N—((S)-tetrahydrofuran-3-yl)acetamide]", "values": [{"measurement": "Plasma (0.01 μM), activity in % of control", "value": "83.5 % of control"}, {"measurement": "Plasma (0.1 μM), activity in % of control", "value": "66.3 % of control"}]}
{"smiles": "Cn1c(CC(=O)NCC2CCOCC2)c2n(c1=S)C[C@H](c1c(F)ccc(F)c1F)C2", "note": "[Example 427, (S)-2-(2-methyl-3-thioxo-6-(2,3,6-trifluorophenyl)-2,5,6,7-tetrahydro-3H-pyrrolo[1,2-c]imidazol-1-yl)-N-((tetrahydro-2H-pyran-4-yl)methyl)acetamide]", "values": [{"measurement": "Plasma (0.01 μM), activity in % of control", "value": "78.1 % of control"}, {"measurement": "Plasma (0.1 μM), activity in % of control", "value": "34.2 % of control"}]}
{"smiles": "Cn1c(CC(=O)NCC2CCOCC2)c2n(c1=S)C[C@H](c1cc(F)cc(F)c1)C2", "note": "[Example 428, (S)-2-(6-(3,5-difluorophenyl)-2-methyl-3-thioxo-2,5,6,7-tetrahydro-3H-pyrrolo[1,2-c]imidazol-1-yl)-N-((tetrahydro-2H-pyran-4-yl)methyl)acetamide]", "values": [{"measurement": "Plasma (0.01 μM), activity in % of control", "value": "68.2 % of control"}, {"measurement": "Plasma (0.1 μM), activity in % of control", "value": "32.3 % of control"}]}
{"smiles": "CN(C(=O)Cc1c2n(c(=S)n1C)C[C@H](c1c(F)ccc(Cl)c1F)C2)C1COC1", "note": "[Example 429, (S)-2-(6-(3-chloro-2,6-difluorophenyl)-2-methyl-3-thioxo-2,5,6,7-tetrahydro-3H-pyrrolo[1,2-c]imidazol-1-yl)-N-methyl-N-(oxetan-3-yl)acetamide]", "values": [{"measurement": "Plasma (0.01 μM), activity in % of control", "value": "37.8 % of control"}, {"measurement": "Plasma (0.1 μM), activity in % of control", "value": "5.8 % of control"}]}
{"smiles": "CN(Cc1cnn(C)c1)C(=O)Cc1c2n(c(=S)n1C)C[C@H](c1c(F)ccc(Cl)c1F)C2", "note": "[Example 430, (S)-2-(6-(3-chloro-2,6-difluorophenyl)-2-methyl-3-thioxo-2,5,6,7-tetrahydro-3H-pyrrolo[1,2-c]imidazol-1-yl)-N-methyl-N-((1-methyl-1H-pyrazol-4-yl)methyl)acetamide]", "values": [{"measurement": "Plasma (0.01 μM), activity in % of control", "value": "25.3 % of control"}, {"measurement": "Plasma (0.1 μM), activity in % of control", "value": "2.2 % of control"}]}
{"smiles": "CN(C(=O)Cc1c2n(c(=S)n1C)C[C@@]1(c3cc(Cl)ccc3F)C[C@@H]21)C1COC1", "note": "[Example 431, 2-((5aS,6aR)-5a-(5-chloro-2-fluorophenyl)-2-methyl-3-thioxo-2,3,5,5a,6,6a-hexahydrocyclopropa[3,4]pyrrolo[1,2-c]imidazol-1-yl)-N-methyl-N-(oxetan-3-yl)acetamide]", "values": [{"measurement": "Plasma (0.01 μM), activity in % of control", "value": "54.3 % of control"}, {"measurement": "Plasma (0.1 μM), activity in % of control", "value": "10.1 % of control"}]}
{"smiles": "Cn1c(CC(=O)NC2COC2)c2n(c1=S)C[C@H](c1c(F)ccc(F)c1F)C2", "note": "[Example 432, (S)-2-(2-methyl-3-thioxo-6-(2,3,6-trifluorophenyl)-2,5,6,7-tetrahydro-3H-pyrrolo[1,2-c]imidazol-1-yl)-N-(oxetan-3-yl)acetamide]", "values": [{"measurement": "Plasma (0.01 μM), activity in % of control", "value": "79.7 % of control"}, {"measurement": "Plasma (0.1 μM), activity in % of control", "value": "43.7 % of control"}]}
{"smiles": "Cn1c(CC(=O)NC2COC2)c2n(c1=S)C[C@@]1(c3cc(Cl)ccc3F)C[C@@H]21", "note": "[Example 433, 2-((5aS,6aR)-5a-(5-chloro-2-fluorophenyl)-2-methyl-3-thioxo-2,3,5,5a,6,6a-hexahydrocyclopropa[3,4]pyrrolo[1,2-c]imidazol-1-yl)-N-(oxetan-3-yl)acetamide]", "values": [{"measurement": "Plasma (0.01 μM), activity in % of control", "value": "56.9 % of control"}, {"measurement": "Plasma (0.1 μM), activity in % of control", "value": "9.2 % of control"}]}
